Laboratory results: ChEMBL document CHEMBL4251606, “Design and characterization of α-lipoic acyl shikonin ester twin drugs as tubulin and PDK1 dual inhibitors” (Eur J Med Chem, 2018)
Active and inactive are the calls of the source. No cut-off for these calls is given here.

Tests used:
HeLa [1] = assay: Induction of apoptosis in human HeLa cells assessed as necrotic cells at 4 uM after 24 hrs by Annexin V-APC/propidium iodide staining-based FACScan flow cytometric analysis (reference value: 1.18%); format: functional
HeLa [2] = assay: Antitumor activity against human HeLa cells xenografted in nude mouse assessed as reduction in tumor size at 1 mg/kg, ip administered once in every 2 days for 15 days relative to control; format: functional, organism-based
HeLa [3] = assay: Antitumor activity against human HeLa cells xenografted in nude mouse assessed as reduction in tumor volume administered intraperitomeally once in every 2 days for 15 days; format: functional
HeLa [4] = assay: Induction of apoptosis in human HeLa cells assessed as increase in Bax expression up to 8 uM after 24 hrs by Western blot analysis; format: functional, cell-based
HeLa [5] = assay: Induction of apoptosis in human HeLa cells assessed as decrease in Bcl2 expression up to 8 uM after 24 hrs by Western blot analysis; format: functional, cell-based
HeLa [6] = assay: Induction of apoptosis in human HeLa cells assessed as viable cells at 6 uM after 36 hrs by Annexin V-APC/propidium iodide staining-based FACScan flow cytometric analysis (reference value: 93%); format: functional; conditions: read-out: Activity
HeLa [7] = assay: Reduction in glucose consumption in human HeLa cells at 2 to 8 uM; format: functional, cell-based
HeLa [8] = assay: Induction of mitochondrial membrane potential loss in human HeLa cells assessed as cells with low membrane potential at 2 uM after 12 hrs by JC-1 staining-based flow cytometric analysis (reference value: 9.31%); format: functional
HeLa [9] = assay: Cell cycle arrest in human HeLa cells assessed as accumulation of cells at S phase at 2 uM after 24 hrs by propidium iodide staining-based FACScan flow cytometric analysis (reference value: 20.16%); format: functional
HeLa [10] = assay: Induction of apoptosis in human HeLa cells assessed as early apoptotic cells at 4 uM after 24 hrs by Annexin V-APC/propidium iodide staining-based FACScan flow cytometric analysis (reference value: 6.46%); format: functional
HeLa [11] = assay: Induction of apoptosis in human HeLa cells assessed as early apoptotic cells at 6 uM after 24 hrs by Annexin V-APC/propidium iodide staining-based FACScan flow cytometric analysis (reference value: 2.45%); format: functional
HeLa [12] = assay: Cell cycle arrest in human HeLa cells assessed as accumulation of cells at G2/M phase at 4 uM after 24 hrs by propidium iodide staining-based FACScan flow cytometric analysis (reference value: 16.82%); format: functional
HeLa [13] = assay: Cell cycle arrest in human HeLa cells assessed as accumulation of cells at G2/M phase at 8 uM after 24 hrs by propidium iodide staining-based FACScan flow cytometric analysis (reference value: 16.82%); format: functional
HeLa [14] = assay: Inhibition of microtubule polymerization in human HeLa cells at 4 uM after 24 hrs by rhodamine/DAPI staining-based confocal microscopic analysis; format: cell-based
HeLa [15] = assay: Induction of apoptosis in human HeLa cells assessed as viable cells at 1 uM after 24 hrs by Annexin V-APC/propidium iodide staining-based FACScan flow cytometric analysis (reference value: 85.1%); format: functional; conditions: read-out: Activity
HeLa [16] = assay: Induction of apoptosis in human HeLa cells assessed as viable cells at 6 uM after 12 hrs by Annexin V-APC/propidium iodide staining-based FACScan flow cytometric analysis (reference value: 93%); format: functional; conditions: read-out: Activity
HeLa [17] = assay: Induction of apoptosis in human HeLa cells assessed as early apoptotic cells at 6 uM after 36 hrs by Annexin V-APC/propidium iodide staining-based FACScan flow cytometric analysis (reference value: 2.45%); format: functional
MDA-MB-231 = assay: Antiproliferative activity against human MDA231 cells after 24 hrs by MTT assay; format: functional, cell-based; conditions: MDA-MB-231, 24 h
HeLa [18] = assay: Induction of apoptosis in human HeLa cells assessed as viable cells at 4 uM after 24 hrs by Annexin V-APC/propidium iodide staining-based FACScan flow cytometric analysis (reference value: 85.1%); format: functional; conditions: read-out: Activity
HeLa [19] = assay: Induction of mitochondrial membrane potential loss in human HeLa cells assessed as cells with low membrane potential at 4 uM after 12 hrs by JC-1 staining-based flow cytometric analysis (reference value: 9.31%); format: functional
Homo sapiens = species on record: Homo sapiens; assay: Inhibition of microtubule polymerization (unknown origin) at 4 uM after 24 hrs by immunoblot
HeLa [20] = assay: Induction of apoptosis in human HeLa cells assessed as late apoptotic cells by measuring FL3-H+ cells at 2 uM after 12 hrs by propidium iodide staining-based flow cytometric analysis (reference value: 3.66%); format: functional
[21] = molecular target: [Pyruvate dehydrogenase (acetyl-transferring)] kinase isozyme 1, mitochondrial (Homo sapiens) (UniProt Q15118); assay: Inhibition of PDK1 in human HeLa cells assessed as decrease in PDH-E1 alpha p-ser293 expression up to 8 uM by Western blot analysis; format: cell-based
HeLa [22] = assay: Induction of apoptosis in human HeLa cells assessed as necrotic cells at 1 uM after 24 hrs by Annexin V-APC/propidium iodide staining-based FACScan flow cytometric analysis (reference value: 1.18%); format: functional
HeLa [23] = assay: Induction of apoptosis in human HeLa cells assessed as early apoptotic cells at 1 uM after 24 hrs by Annexin V-APC/propidium iodide staining-based FACScan flow cytometric analysis (reference value: 6.46%); format: functional
HeLa [24] = assay: Antiproliferative activity against human HeLa cells after 24 hrs by MTT assay; format: functional, cell-based
HeLa [25] = assay: Induction of apoptosis in human HeLa cells assessed as late apoptotic cells at 6 uM after 12 hrs by Annexin V-APC/propidium iodide staining-based FACScan flow cytometric analysis (reference value: 3.84%); format: functional
HeLa [26] = assay: Induction of apoptosis in human HeLa cells assessed as late apoptotic cells at 6 uM after 36 hrs by Annexin V-APC/propidium iodide staining-based FACScan flow cytometric analysis (reference value: 3.84%); format: functional
HeLa [27] = assay: Induction of mitochondrial membrane potential loss in human HeLa cells assessed as cells with high membrane potential at 2 uM after 12 hrs by JC-1 staining-based flow cytometric analysis (reference value: 85.8%); format: functional
[28] = molecular target: [Pyruvate dehydrogenase (acetyl-transferring)] kinase isozyme 1, mitochondrial (Homo sapiens) (UniProt Q15118); assay: Inhibition of PDK1 in human HeLa cells assessed as increase in PDH-E1 alpha expression at 6 uM by Western blot analysis; format: cell-based
Mus musculus = assay: Inhibition of PDK1 in mouse xenografted with human HeLa cells assessed as upregulation of PDH-E1 alpha expression in tumor tissue at 1 to 2 mg/kg, ip administered once in every 2 days for 15 days by immunohistochemistry; format: functional, organism-based
[29] = molecular target: [Pyruvate dehydrogenase (acetyl-transferring)] kinase isozyme 1, mitochondrial (Homo sapiens) (UniProt Q15118); assay: Inhibition of PDK1 in human HeLa cells assessed as decrease in PDH-E1 alpha p-ser300 expression at 6 uM by Western blot analysis; format: cell-based
HeLa [30] = assay: Induction of mitochondrial membrane potential loss in human HeLa cells assessed as increase in green fluorescence at 2 to 4 uM by JC-1 staining-based fluorescence microscopic analysis; format: functional, cell-based
HeLa [31] = assay: Induction of apoptosis in human HeLa cells assessed as late apoptotic cells by measuring FL3-H+ cells at 6 uM after 36 hrs by propidium iodide staining-based FACScan flow cytometric analysis (reference value: 2.13%); format: functional
HeLa [32] = assay: Induction of mitochondrial membrane potential loss in human HeLa cells assessed as cells with high membrane potential at 4 uM after 12 hrs by JC-1 staining-based flow cytometric analysis (reference value: 85.8%); format: functional

In the case of `CC(C)=CC[C@@H](OC(=O)CCCC[C@@H]1CCSC(c2ccccc2)S1)C1=CC(=O)c2c(O)ccc(O)c2C1=O` (stereo not given in full), the Activity (HeLa [1]) is reported as 16.9%, the Activity (HeLa [2]) is reported as “Active” and the Activity (HeLa [3]) is reported as “Dose-dependent effect”. The Activity (HeLa [4]) was “Active”, the Activity (HeLa [5]) was “Active” and the viability at 6 µM (HeLa [6]) was 26.4%. The Activity (HeLa [7]) was “Active”, the Activity (HeLa [8]) was 53% and the Activity (HeLa [9]) was 16.37%. The Activity (HeLa [10]) was 6.67%, the Activity (HeLa [11]) was 26.1% and the Activity (HeLa [12]) was 45.2%. For the same compound, the Activity (HeLa [13]) was 52.44%, the inhibition (HeLa [14]) was “Active” and the viability at 1 µM (HeLa [15]) was 37%. The viability at 6 µM (HeLa [16]) was 48.8%, the Activity (HeLa [17]) was 45.7% and the IC50 (MDA-MB-231) was 17.7 µM. For the same compound, the viability at 4 µM (HeLa [18]) was 18.1%, the Activity (HeLa [19]) was 82.2% and the inhibition (Homo sapiens) was “Active”. For the same compound, the Activity (HeLa [20]) was 3.9%, the inhibition [21] was “inactive” and the Activity (HeLa [22]) was 4.46%. The Activity (HeLa [23]) was 15.8%, the IC50 (HeLa [24]) was 3.14 µM and the Activity (HeLa [25]) was 29.9%. For the same compound, the Activity (HeLa [26]) was 22.9%, the Activity (HeLa [27]) was 42.1% and the inhibition [28] was “Active”. For the same compound, the Activity (Mus musculus) was “Active”, the inhibition [29] was “Active” and the Activity (HeLa [30]) was “Active”. For the same compound, the Activity (HeLa [31]) was 55.2% and the Activity (HeLa [32]) was 10.3%.
